The values that follow come from patent publication US20230011869A1 (Hoffmann-La Roche Inc., priority 2018, published 2023).

In the test the test system is Acinetobacter baumannii ATCC17961. As to the kind of experiment: Antimicrobial susceptibility testing: 90% growth inhibitory concentration (IC90) determination, Iso-Sensitest broth. The format is cell-based. The conditions noted are these: Acinetobacter baumannii, ATCC17961, 16 h, read-out: ATCC17961 IC90. The method, boiled down: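 Twofold serial dilutions (e.g. 50 to 0.097 μM final) in Iso-Sensitest broth, inoculum 5×10^(5) CFU/ml, incubated at 35±2° C. OD600 read every 20 minutes over 16 h; IC90 derived from growth inhibition during logarithmic phase.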

Molecules are shown by their SMILES. Where a name gives a salt, the structure may show the parent alone.

For `CCc1cc(Nc2nccn3c(-c4ccc(OC(F)F)c(F)c4F)cnc23)ccc1C(=O)N1CCC(C(=O)N2CC3(CNC3)C2)CC1` [Example 591, (4-(2,6-diazaspiro[3.3]heptane-2-carbonyl)piperidin-1-yl)(4-((3-(4-(difluoromethoxy)-2,3-difluorophenyl)imidazo[1,2-a]pyrazin-8-yl)amino)-2-ethylphenyl)methanone 2,2,2-trifluoroacetate formate], the IC90 (as a rule, the concentration at which the effect reaches the 90% level) came out at 0.052 µM.

On to `CCc1cc(Nc2nccn3c(-c4ccc(OC(F)F)c(F)c4F)cnc23)ccc1C(=O)N1CCC(C(=O)N2C[C@@H]3C[C@H]2CN3)CC1` [Example 592, (4-((1S,4S)-2,5-diazabicyclo[2.2.1]heptane-2-carbonyl)piperidin-1-yl)(4-((3-(4-(difluoromethoxy)-2,3-difluorophenyl)imidazo[1,2-a]pyrazin-8-yl)amino)-2-ethylphenyl)methanone 2,2,2-trifluoroacetate formate], for which the IC90 was 0.038 µM.

Take `CCc1cc(Nc2nccn3c(-c4ccc(OC(F)F)c(F)c4F)cnc23)ccc1C(=O)N1CCC(N)CC1` [Example 593, (4-aminopiperidin-1-yl)(4-((3-(4-(difluoromethoxy)-2,3-difluorophenyl)imidazo[1,2-a]pyrazin-8-yl)amino)-2-ethylphenyl)methanone formate]: the IC90 is 0.196 µM.
